# Target: T1, chimeric receptor having the extra-cellular domain of EGF-R and the intra-cellular domain of Her2 (Homo sapiens, UniProt P04626)
# T1 construct: fused on or other part: the same chimera
# Experiment: EGF-induced Her2-driven BrdU incorporation
# Type: cell-based
# Settings: read-out: BrdU HER 2 driven IC50
# Experimental: The cellular/catalytic assays described herein are performed in an ELISA format. The general procedure is as follows: a compound is introduced to cells expressing the test kinase, either naturally or recombinantly, for a selected period of time after which, if the test kinase is a receptor, a ligand known to activate the receptor is added. The cells are lysed and the lysate is transferred to the wells of an ELISA plate previously coated with a specific antibody recognizing the substrate of the enzymatic phosphorylation reaction. Non-substrate components of the cell lysate are washed away and the amount of phosphorylation on the substrate is detected with an antibody specifically recognizing phosphotyrosine compared with control cells that were not contacted with a test compound. The cellular/biologic assays described herein measure the amount of DNA made in response to activation of a test kinase, which is a general measure of a proliferative response. The general procedure for this assay is as follows: a compound is introduced to cells expressing the test kinase, either naturally or recombinantly, for a selected period of time after which, if the test kinase is a receptor, a ligand known to activate the receptor is added. After incubation at least overnight, a DNA labeling reagent such as Bromodeoxyuridine (BrdU) or 3H-thymidine is added. The amount of labeled DNA is detected with either an anti-BrdU antibody or by measuring radioactivity and is compared to control cells not contacted with a test compound.
# EGF-Induced Her2-Driven BrdU Incorporation
# Protocol • (1) Cells-are seeded at 8000 cells/well in DMEM, 10% CS, 2mM Gln in a 96-well plate. Cells are incubated overnight at 37° C. in 5% CO2. • (2) After 24 hours, the cells are washed with PBS, and then are serum starved in serum free medium (0% CS DMEM with 0.1% BSA) for 24 hours. • (3) On day 3, ligand (EGF=2 nM, prepared in DMEM with 0.1% BSA) and test compounds are added to the cells simultaneously. The negative control wells receive serum free DMEM with 0.1% BSA only, the positive control cells receive the ligand (EGF) but no test compound. Test compounds are prepared in serum free DMEM with ligand in a 96 well plate, and serially diluted for 7 test concentrations. • (4) After 20 hours of ligand activation, diluted BrdU labeling reagent (1:100 in DMEM, 0.1% BSA) is added and the cells are incubated with BrdU (final concentration=10 μM) for 1.5 hours. • (5) After incubation with labeling reagent, the medium is removed by decanting and tapping the inverted plate on a paper towel. FixDenat solution is added (50 μl/well) and the plates are incubated at room temperature for 45 minutes on a plate shaker. • (6) The FixDenat solution is thoroughly removed by decanting and tapping the inverted plate on a paper towel. Milk is added (5% dehydrated milk in PBS, 200 μ/well) as a blocking solution and the plate is incubated for 30 minutes at room temperature on a plate shaker. • (7) The blocking solution is removed by decanting and the wells are washed once with PBS. Anti-BrdU-POD solution (1:100 dilution in PBS, 1% BSA) is added (100 μl/well) and the plate is incubated for 90 minutes at room temperature on a plate shaker. • (8) The antibody conjugate is thoroughly removed by decanting and rinsing the wells 5 times with PBS, and the plate is dried by inverting and tapping on a paper towel. • (9) TMB substrate solution is added (100 μl/well) and incubated for 20 minutes at room temperature on a plate shaker until color development is sufficient for photometric detection. • (10) The absorbance of the samples are measured at 410 nm (in “dual wavelength” mode with a filter reading at 490 nm, as a reference wavelength) on a Dynatech ELISA plate reader.
# T1 sequence (P04626 676-1255 limits assumed, change not shown): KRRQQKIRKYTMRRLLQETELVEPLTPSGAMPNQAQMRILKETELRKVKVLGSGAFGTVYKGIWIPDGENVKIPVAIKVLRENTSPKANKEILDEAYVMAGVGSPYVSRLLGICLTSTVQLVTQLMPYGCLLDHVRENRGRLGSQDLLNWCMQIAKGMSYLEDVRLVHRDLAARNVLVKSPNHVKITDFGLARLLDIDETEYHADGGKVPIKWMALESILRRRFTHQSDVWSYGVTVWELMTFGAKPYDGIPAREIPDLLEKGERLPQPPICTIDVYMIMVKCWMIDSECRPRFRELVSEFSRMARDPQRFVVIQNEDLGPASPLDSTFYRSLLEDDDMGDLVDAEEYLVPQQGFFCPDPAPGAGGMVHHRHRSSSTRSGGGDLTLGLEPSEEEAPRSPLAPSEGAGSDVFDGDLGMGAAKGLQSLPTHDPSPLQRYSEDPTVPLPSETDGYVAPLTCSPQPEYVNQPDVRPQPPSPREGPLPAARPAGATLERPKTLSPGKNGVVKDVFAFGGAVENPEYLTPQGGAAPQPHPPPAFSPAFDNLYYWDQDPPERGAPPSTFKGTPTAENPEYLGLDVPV
compound,measurement,value
"COc1c(C(C)C)cc(/C=C2/C(=O)Nc3ccccc32)cc1C(C)C [Example 1, 3-(3,5-Diisopropyl-4-methoxybenzylidene)-1,3-dihydroindol-2-one]",IC50,8.7 µM
